Data from publication PMC3834177 (Cancer Chemotherapy and Pharmacology, 2013).
Values joined by “and” are separate entries in the source; they are usually repeats but may differ in a detail not shown here. Equal entries are not always repeated. “Also recorded” adds a separate entry of the source.

Experiments:
[1] = Safety and tolerability, ketoconazole study; assay type: in vivo, human
Protocol: (§1) Adverse events (AEs) were recorded during the study and up to 1 month (28 days) after the end of study. Volunteers remained at the clinic until AEs were common toxicity criteria (CTC) grade ≤1.

[2] = Safety and tolerability, rifampicin study
[3] = test system: human serum protein α1-acid glycoprotein (AAG); set-up: method as in PMID 11230495; conditions: cited from earlier work
[4] = Midostaurin PK when administered with rifampicin; conditions: for AUC(0-inf) / AUC(0-t) / Cmax / half-life: human, oral; for AUC(0-inf): AUC0–inf; for AUC(0-inf) / AUC(0-t) / Cmax: adjusted geometric mean; for AUC(0-t): AUC0–last; for Cmax: C max; for half-life: t 1/2, adjusted geometric mean
Protocol: These endogenous molecules served as exploratory biomarkers for CYP3A4 activity in vivo [21, 22].
A point estimate and the corresponding 90 % CI for the treatment effect (test vs reference) were calculated. These were anti-logged to obtain the GMR and respective 90 % CI. […] The median difference was estimated with the Hodges–Lehmann estimator and its respective exact two-sided 90 % CI. All formal comparative statistical analyses were performed using SAS software.
(§2) The concentration of ketoconazole in plasma was assessed using a validated LC–MS/MS assay with an LLOQ of 50.0 ng/mL (WuXi Pharmatech Co, Ltd, China). The concentration of rifampicin in plasma was measured using a validated LC–MS/MS assay with an LLOQ of 5.0 ng/mL (SGS, Cephac Europe, SAS). Plasma concentrations of midazolam and its metabolite 1′-hydroxymidazolam, which is generated by CYP3A4 and CYP3A5 in humans, were measured using a validated LC–MS/MS assay with an LLOQ of ≈0.100 ng/mL (SGS, Cephac Europe, SAS). The plasma concentration of 4β-hydroxycholesterol was measured using a validated LC–MS/MS assay with an LLOQ of 3.0 ng/mL (SGS, Cephac Europe, SAS). The concentrations of 6β-hydroxycortisol and cortisol in urine were determined using validated LC–MS/MS assays with an LLOQ of 10.0 ng/mL for 6β-hydroxycortisol and 1.0 ng/mL for cortisol. The ratio of 6β-hydroxycortisol to cortisol was subsequently calculated (SGS, Cephac Europe, SAS). See Supplementary Table 2 for detailed bioanalytical methods for all 3 studies.

patients with ASM = conditions: cited from earlier work
CYP3A4 [5] = assay: CYP3A4 activity in vivo in midazolam study (probe and endogenous biomarkers); set-up: species or system human
Protocol: Both inhibition and induction of midazolam clearance were investigated.
Similarly, blood and urine samples were taken on days 1, 3, 6, 7, 8, and 9 to measure the levels of 4β-hydroxycholesterol in plasma and the 6β-hydroxycortisol/cortisol ratio in urine, markers of CYP3A4 activity.
as §2

[6] = Midostaurin PK when administered with ketoconazole; conditions: for AUC(0-inf): AUC0–inf; for AUC(0-inf) / Cmax: adjusted geometric mean; for Cmax: C max; for half-life: t 1/2, adjusted geometric mean
Protocol: According to the US Food and Drug Administration, ketoconazole 400 mg once daily is the recommended dose to evaluate DDIs involving CYP3A4 inhibition. [drawing 1]
as §1
A point estimate and the corresponding 90 % CI for the treatment effect were calculated for the test treatment compared with the reference. These were anti-logged to obtain the point estimate and the 90 % CI for the geometric mean ratio (GMR) on the untransformed scale. […] All ANOVAs were performed using SAS software (SAS Institute Inc., Cary, NC, USA).
as §2

[7] = cited from earlier work
CYP3A4 [8] = conditions: patients with ASM, 1–2 months of daily midostaurin dosing; cited from earlier work
[9] = ketoconazole study, both arms pooled (N = 47)
[10] = ketoconazole study: Mido 50 mg (n = 20) or Mido 50 mg + Keto 400 mg (n = 27)
[11] = rifampicin study: Mido 50 mg + Rifa 600 mg (n = 25) or Mido 50 mg (n = 21)
[12] = plasma, plasma, Placebo + midostaurin arm, rifampicin study, n = 20
[13] = plasma, plasma, Rifampicin + midostaurin arm, n = 20
[14] = phase II, 100 mg twice daily, 26 patients with ASM
[15] = stage 1 analysis, global phase II study, ASM or mast cell leukemia
[16] = human, plasma, oral, plasma, Ketoconazole + midostaurin arm, n = 18
[17] = human, plasma, oral, plasma, Placebo + midostaurin arm, ketoconazole study, n = 18
[18] = midostaurin 50 mg single dose, ketoconazole 400 mg daily

CO[C@@H]1[C@H](N(C)C(=O)c2ccccc2)C[C@H]2O[C@]1(C)n1c3ccccc3c3c4c(c5c6ccccc6n2c5c31)C(=O)NC4 [Midostaurin]
tolerability ([1]; all 3 studies, single agent or in combination, healthy volunteers): generally well tolerated | intensity of AEs ([1]; ketoconazole study, both arms pooled): mild | participants who discontinued the study because of AEs [1, 9]: 15% | serious AEs [1, 9]: no serious AEs | Adverse event: Abdominal distension [1, 10]: 0 n (%) | Adverse event: Any preferred term [1, 10]: 13 (65.0) n (%) | Adverse event: Back pain [1, 10]: 0 n (%) | Adverse event: Chromaturia [1, 10]: 0 n (%) | Adverse event: Cough [1, 10]: 0 n (%) | Adverse event: Diarrhea [1, 10]: 4 (20.0) n (%) | Adverse event: Discolored feces [1, 10]: 0 n (%) | Adverse event: Dizziness [1, 10]: 5 (25.0) n (%) | Adverse event: Dry skin [1, 10]: 0 n (%) | Adverse event: Dyspepsia [1, 10]: 0 n (%) | Adverse event: Feeling cold [1, 10]: 2 (10.0) n (%) | Adverse event: Feeling hot [1, 10]: 0 n (%) | Adverse event: Flatulence [1, 10]: 0 n (%) | Adverse event: Headache [1, 10]: 2 (10.0) n (%) | Adverse event: Hot flush [1, 10]: 0 n (%) | Adverse event: Nasopharyngitis [1, 10]: 0 n (%) | Adverse event: Nausea [1, 10]: 7 (35.0) n (%) | Adverse event: Palpitations [1, 10]: 0 n (%) | Adverse event: Pharyngolaryngeal pain [1, 10]: 0 n (%) | Adverse event: Restlessness [1, 10]: 0 n (%) | Adverse event: Rhinitis [1, 10]: 1 (5.0) n (%) | Adverse event: Sleep disorder [1, 10]: 0 n (%) | Adverse event: Somnolence [1, 10]: 0 n (%) | Adverse event: Vomiting [1, 10]: 1 (5.0) n (%) | diarrhea ([2]; rifampicin study, by arm): 33% | nausea ([2]; rifampicin study, by arm): 38% | participants who experienced an AE ([2]; rifampicin study, by arm): 62% | Adverse event: Abdominal distension [2, 11]: 0 n (%) | Adverse event: Any preferred term [2, 11]: 13 (61.9) n (%) | Adverse event: Back pain [2, 11]: 1 (4.8) n (%) | Adverse event: Chromaturia [2, 11]: 0 n (%) | Adverse event: Cough [2, 11]: 0 n (%) | Adverse event: Diarrhea [2, 11]: 7 (33.3) n (%) | Adverse event: Discolored feces [2, 11]: 0 n (%) | Adverse event: Dizziness [2, 11]: 0 n (%) | Adverse event: Dry skin [2, 11]: 0 n (%) | Adverse event: Dyspepsia [2, 11]: 0 n (%) | Adverse event: Feeling cold [2, 11]: 0 n (%) | Adverse event: Feeling hot [2, 11]: 0 n (%) | Adverse event: Flatulence [2, 11]: 1 (4.8) n (%) | Adverse event: Headache [2, 11]: 1 (4.8) n (%) | Adverse event: Hot flush [2, 11]: 0 n (%) | Adverse event: Nasopharyngitis [2, 11]: 2 (9.5) n (%) | Adverse event: Nausea [2, 11]: 8 (38.1) n (%) | Adverse event: Palpitations [2, 11]: 0 n (%) | Adverse event: Pharyngolaryngeal pain [2, 11]: 0 n (%) | Adverse event: Restlessness [2, 11]: 0 n (%) | Adverse event: Rhinitis [2, 11]: 0 n (%) | Adverse event: Sleep disorder [2, 11]: 0 n (%) | Adverse event: Somnolence [2, 11]: 0 n (%) | Adverse event: Vomiting [2, 11]: 1 (4.8) n (%) | bound to AAG [3]: 88–98% | increase in geometric mean of apparent clearance with rifampicin ([4]; compared with midostaurin administered alone): 16.9 fold | AUC(0-inf) ([4]; plasma, plasma, Placebo + midostaurin arm (midostaurin 50 mg once), rifampicin study, n = 20): 22800 ng·h/mL | AUC(0-inf) ([4]; plasma, plasma, Rifampicin + midostaurin arm (midostaurin 50 mg once, rifampicin 600 mg daily), n = 20): 1350 ng·h/mL | AUC(0-t) [4, 12]: 22000 ng·h/mL | AUC(0-t) [4, 13]: 1230 ng·h/mL | Cmax [4, 12]: 1620 ng/mL | Cmax [4, 13]: 440 ng/mL | half-life [4, 12]: 23 h | half-life [4, 13]: 5.14 h | decrease in exposure by induction of CYP3A4 by rifampicin ([4]; midostaurin 50 mg single dose, rifampicin 600 mg daily): more than tenfold | t max, median ([4]; plasma, Placebo + midostaurin arm, rifampicin study, n = 20): 1.02 h | response rate according to Valent criteria (patients with ASM; phase II investigator-initiated study, 100 mg twice daily, 26 patients with ASM): 69% | good partial responses (number of patients) (patients with ASM; [14]): 5 | incomplete remissions (number of patients) (patients with ASM; [14]): 6 | major responses (number of patients) (patients with ASM; [14]): 10 | minor partial responses (number of patients) (patients with ASM; [14]): 3 | pure clinical responses (number of patients) (patients with ASM; [14]): 4 | major response (patients with ASM; [15]): 53% | overall response rate (patients with ASM; [15]): 60% | inhibition or induction of CYP3A4 in vivo (CYP3A4 [5]; humans, single dose 100 mg and 50 mg twice daily): neither an inhibitor nor inducer; also recorded: neither a CYP3A4 inhibitor nor a CYP3A4 inducer | effect on concentrations of midazolam and 1′-hydroxymidazolam (CYP3A4 [5]; single or multiple doses of midostaurin): did not appreciably affect | fraction of midostaurin metabolized by CYP3A4 (FmCYP3A4) ([6]; 1 − AUCinf (without ketoconazole)/AUCinf (with ketoconazole)): 91% | DDI classification (PhRMA proposal for drugs biotransformed via CYP3A4) ([6]; co-administration with ketoconazole): strong | elimination t 1/2 in the presence of ketoconazole ([6]; compared with placebo): prolonged | AUC(0-inf) ([6]; human, plasma, oral, plasma, Ketoconazole + midostaurin arm (midostaurin 50 mg once, ketoconazole 400 mg daily), n = 18): 206000 ng·h/mL | AUC(0-inf) ([6]; human, plasma, oral, plasma, Placebo + midostaurin arm (midostaurin 50 mg once), ketoconazole study, n = 18): 19800 ng·h/mL | Cmax [6, 16]: 2890 ng/mL | Cmax [6, 17]: 1590 ng/mL | half-life [6, 16]: 90.6 h | half-life [6, 17]: 23.3 h | Tmax ([6]; human, plasma, oral, t max, median, plasma, Ketoconazole + midostaurin arm, n = 18): 1.5 h | t max, Hodges–Lehmann estimate of median difference (90 % distribution-free CI) ([6]; ketoconazole + midostaurin vs placebo + midostaurin): 0.5 (0, 0.5) h | increase in AUC (exposure) with ketoconazole compared with placebo [6, 18]: more than tenfold; also recorded: tenfold | increase in C max with ketoconazole compared with placebo [6, 18]: ≈ 1.8 fold and 1.8 fold | free midostaurin concentrations [7]: 0.02 to 1 µM | major pathway for elimination [7]: Fecal excretion | period of time-linear accumulation ([7]; daily oral dosing): 3 to 6 days | time to new plateau of plasma concentrations ([7]; daily oral dosing): 2–3 weeks | mean apparent volume of distribution ([7]; healthy volunteers): 111 L | time of peak plasma concentrations postdose ([7]; human, in vivo, po): 1 to 3 h | dose proportionality of C max and AUC ([7]; single-dose administration): increased proportionally with dose following single-dose administration of midostaurin between 25- and 50-mg doses but under proportionally between 50- and 100-mg doses | change in level of endogenous CYP3A4 biomarker 4-β-hydroxycholesterol in plasma (CYP3A4 [8]): significant increase
